Measured values taken from patent US20260165321A1, “FUMIGANT COMPOSITION FOR PEST CONTROL” (priority 2020, published 2026).
In brackets after ≈: the same amount, converted by molar mass.

Legend:
Format in all cases: in vivo
[1] = test system: rice weevil (Sitophilus oryzae); settings: adult rice weevil, fumigation 2 hours, about 24° C., 1-liter container
Source text: (§1) The poisoning ability index used in the following examples is the internationally commonly used median lethal concentration (LC50), which refers to a dosage required to kill 50% of a group of tested insects. The main test method is to include a number of tested insect (adults or larvae) and the examined chemical at a wide range of dosage in a 1-liter airtight transparent containers for a period of time. Afterward, the airtight containers were opened for ventilation, and the dead insects in the containers were counted. The linear regression between the mortality, expressed as probability unit, and the log dosage was analyzed using the software Priprobit v1.63, from which the value of LC50 could be obtained.
Put 30 adult insects of rice weevil (Sitophilus oryzae) into each of a group of 1-liter transparent containers, on which the name of tested chemical and the predetermined dosage are marked. Wherein, the chemicals to be tested include 2,5-dimethylfuran, 2,5-dimethylthiophene, 2-methylfuran, 2-methylthiophene, 2-ethylfuran and 2-ethylthiophene. The airtight containers, which contain the insect and chemical, are left at room temperature of about 24° C. for 2 hours. Afterward, the containers are opened for ventilation, and the dead rice weevils (Sitophilus oryzae) in each of the containers are counted. The linear regression between mortality and log dosage is analyzed using the software Priprobit v1.63, from which the lethal concentrations 50% (LC50) and 95% (LC95) are calculated.

[2] = test system: German cockroach (Blattella germanica); assay: Fumigant toxicity test (1), 2 h in 1-liter airtight container; settings: fumigation 2 hours, ~24° C., 30 insects, doses 0-180 mg/dm^3
Source text: as §1
(§2) Take several 1-liter airtight transparent containers marked with different doses of 2,5-dimethylfuran, then put 30 insects into each of the transparent containers and add 2,5-dimethylfuran with marked doses (0, 18, 45, 90, 180 mg/dm^3), respectively, into each of the transparent containers. Place the containers at room temperature (˜24° C.) for 2 hours, and then quantitate the dead insects in each of the transparent containers. Wherein, the insects used include German cockroach (Blattella germanica), green peach aphid (Myzus persicae), brown planthopper (Nilaparvata lugens), diamondback moth (Plutella xylostella), rice weevil (Sitophilus oryzae), lesser grain borer (Rhyzopertha dominica), and sweet potato weevil (Cylas formicarius).

[3] = test system: brown planthopper (Nilaparvata lugens); assay: as above; settings: fumigation 2 hours, ~24° C., 30 insects, doses 0-180 mg/dm^3
Source text: as §1, §2

[4] = test system: diamondback moth (Plutella xylostella); assay: as above; settings: fumigation 2 hours, ~24° C., 30 insects, doses 0-180 mg/dm^3
Source text: as §1, §2

[5] = test system: green peach aphid (Myzus persicae); assay: as above; settings: fumigation 2 hours, ~24° C., 30 insects, doses 0-180 mg/dm^3
Source text: as §1, §2

[6] = test system: lesser grain borer (Rhyzopertha dominica); assay: as above; settings: fumigation 2 hours, ~24° C., 30 insects, doses 0-180 mg/dm^3
Source text: as §1, §2

[7] = test system: rice weevil (Sitophilus oryzae); assay: as above; settings: fumigation 2 hours, ~24° C., 30 insects, doses 0-180 mg/dm^3
Source text: as §1, §2

SMILES	LC95 [95% CI] [1] [µg/mL]	further results
Cc1ccc(C)s1 [2,5-dimethylthiophene]	135.3 (≈ 1210 µM)	–
Cc1ccc(C)o1 [2,5-dimethylfuran]	111.6 (≈ 1160 µM)	administered dosage required to kill all the tested individuals [2]: 90 mg/L; administered dosage required to kill all the tested individuals [3]: 90 mg/L; administered dosage required to kill all the tested individuals [4]: 90 mg/L; administered dosage enough to kill all the tested individuals [5]: 18 mg/L; administered dosage enough to kill all the tested individuals [6]: 18 mg/L; administered dosage required to kill all the tested individuals [7]: 90 mg/L
Cc1cccs1 [2-methylthiophene]	54.6 (≈ 556 µM)	–
CCc1ccco1 [2-ethylfuran]	146.5 (≈ 1520 µM)	–
CCc1cccs1 [2-ethylthiophene]	20.6 (≈ 184 µM)	–
Cc1ccco1 [2-methylfuran]	329.7 (≈ 4020 µM)	–
